Holding throughout (type): cell-based
Assay [1] concerns the target T1, hPPARα (LBD) (Homo sapiens, UniProt Q07869).
T1 construct: The receptor expression plasmid (pSG5-GAL4-hPPARα or γ or δ (LBD)); GAL4 (fusion partner); expressed in transfected cells; host or cells: CV-1 cells (ATCC)
T1 sequence (Q07869 239-466 limits assumed): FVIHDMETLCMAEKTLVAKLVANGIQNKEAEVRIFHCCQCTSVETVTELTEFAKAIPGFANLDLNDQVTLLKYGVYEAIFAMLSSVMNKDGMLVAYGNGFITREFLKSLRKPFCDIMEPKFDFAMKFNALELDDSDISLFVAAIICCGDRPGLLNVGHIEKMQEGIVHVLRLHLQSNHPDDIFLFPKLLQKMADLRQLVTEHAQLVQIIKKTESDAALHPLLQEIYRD
Put plainly: GAL4-hPPARα (LBD) luciferase reporter transactivation in CV-1 cells. The note with it: about 40 hours, relative to GW-590735 as 100%, read-out: PPAR activities EC50 PPARα. As to the method:
(§1) The PPARδ activation effect of the compounds of the present invention was determined as follows (measurement of the PPAR activation effect of the test compounds (compounds in the examples)).
(§2) The receptor expression plasmid (pSG5-GAL4-hPPARα or γ or δ (LBD)), luciferase expression plasmid (pUC8-MH100×4-TK-Luc) and β-galactosidase expression plasmid (pCMX-β-GAL) (Kliewer, S. A. et. al., (1992) Nature, 358:771-774) were introduced into CV-1 cells (ATCC).
(§3) After gene introduction using the lipofection reagent DMRIE-C or Lipofectamin 2000 (Invitrogen), the cells were cultured in the presence of the test compound for 42 hours. Lysed cells were tested for luciferase activity and β-GAL activity.
(§4) The following methods were used to determine the PPAR activation effect of the tested compounds (compounds in the examples)
(§5) Receptor expression plasmid (pSG5-GAL4-hPPARα, 7 or 6 (LBD)), luciferase expression plasmid (pUC8-MH100×4-TK-Luc) and β-Galactosidase expression plasmid (pCMX-β-GAL) (Kilewer, S. A. et. al., (1992) Nature, 358: 771-774) were introduced into CV-1 cells (ATCC). After gene introduction using a lipofection reagent (Lipofectamine 2000 (Invitrogen)), the cells were cultured in the presence of the test compounds for about 40 hours.
A general note: Reporter assays use an easily measured gene product as a stand-in for the process of interest.

Assay [2] has as its target T2, hPPARγ (LBD) (Homo sapiens, UniProt P37231).
T2 construct: The receptor expression plasmid (pSG5-GAL4-hPPARα or γ or δ (LBD)); GAL4 (fusion partner); expressed in transfected cells; host or cells: CV-1 cells (ATCC)
T2 sequence (P37231 238-503 limits assumed): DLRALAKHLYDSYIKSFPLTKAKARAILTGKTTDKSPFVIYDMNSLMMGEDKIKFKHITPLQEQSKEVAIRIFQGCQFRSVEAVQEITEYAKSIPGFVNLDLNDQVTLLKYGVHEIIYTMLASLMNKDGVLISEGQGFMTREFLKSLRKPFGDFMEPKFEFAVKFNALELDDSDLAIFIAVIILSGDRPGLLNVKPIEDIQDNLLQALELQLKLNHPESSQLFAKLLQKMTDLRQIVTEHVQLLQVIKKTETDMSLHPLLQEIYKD
Put plainly: GAL4-hPPARγ (LBD) luciferase reporter transactivation in CV-1 cells. The note with it: about 40 hours, relative to Rosiglitazone as 100%, read-out: PPAR activities EC50 PPARγ. As to the method: as §1, §2, §3, §4, §5

The target in assay [3] is T3, hPPARδ (LBD) (Homo sapiens, UniProt Q03181).
T3 construct: The receptor expression plasmid (pSG5-GAL4-hPPARα or γ or δ (LBD)); GAL4 (fusion partner); expressed in transfected cells; host or cells: CV-1 cells (ATCC)
T3 sequence (Q03181 211-439 limits assumed): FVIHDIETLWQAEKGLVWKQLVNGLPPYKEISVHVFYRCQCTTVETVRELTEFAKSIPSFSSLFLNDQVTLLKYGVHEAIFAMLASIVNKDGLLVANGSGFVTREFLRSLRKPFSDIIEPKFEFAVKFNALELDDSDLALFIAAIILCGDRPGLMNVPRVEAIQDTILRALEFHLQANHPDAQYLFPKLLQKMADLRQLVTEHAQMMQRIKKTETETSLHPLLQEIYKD
Put plainly: GAL4-hPPARδ (LBD) luciferase reporter transactivation in CV-1 cells. The note with it: about 40 hours, relative to GW-501516 as 100%, read-out: PPAR activities EC50 PPARδ. As to the method: as §1, §2, §3, §4, §5

A word on the EC50: it is the concentration at which the effect is half-maximal. With `CCc1cc(COc2ccccc2Cn2c(CCCN3CCCC3)nc3cc(Br)ccc32)ccc1CCC(=O)O` [Compound 17, 3-(4-((2-((5-Bromo-2-(3-(pyrrolidin-1-yl)propyl)-1H-benzo[d]imidazol-1-yl)methyl)-phenoxy)methyl)-2-ethylphenyl)propanoic acid], the EC50 is 3050 nM in assay [1], 15400 nM in assay [2] and 41800 nM in assay [3].
The matching figures for `CCc1cc(COc2ccccc2Cn2c(CN3CCCC3)nc3cc(Br)ccc32)ccc1OCC(=O)O` [Compound 50]: 3990 nM, 2040 nM and 803 nM.
For `CCc1cc(COc2ccccc2Cn2c(CCCN3CCCC3)nc3cc(Br)ccc32)ccc1OCC(=O)O` [Compound 15, 2-(4-((2-((5-Bromo-2-(3-(pyrrolidin-1-yl)propyl)-1H-benzo[d]imidazol-1-yl)methyl)phenoxy)methyl)-2-ethylphenoxy)acetic acid] the same measures were 2110 nM, 9110 nM and 6560 nM.
On to `CCc1cc(COc2ccccc2Cn2c(CN3CCCC3)nc3cc(Br)ccc32)ccc1CCC(=O)O` [Compound 14], for which the values for the EC50 in assay [1], in assay [2] and in assay [3] were 3420 nM, 672 nM and 142 nM, respectively.
The matching figures for `CCc1cc(COc2ccccc2Cn2c(CCc3ccc(Cl)cc3Cl)nc3cc(Br)ccc32)ccc1CCC(=O)O` [Compound 3, 3-(4-((2-((5-Bromo-2-(2.4-dichlorophenethyl)-1H-benzo[d]imidazol-1-yl)methyl)phenoxy)methyl)-2-ethylphenyl)propanoic acid]: 104 nM, 186 nM and 36.5 nM.

The record behind these values is US12522569B2, “Substituted benzimidazole derivative and use thereof” (Chengdu FANXI Biopharma Co., Ltd., priority 2020, dated 2026).
